The text below walks through data of patent US12528802B2, “Heterocyclic compound” (Takeda Pharmaceutical Company Limited, priority 2019, dated 2026).

The assay concerns the target T1, glucosylceramide synthase (Homo sapiens, UniProt Q16739).
T1 construct: made in house; host or cells: Expi293F cells (transient expression, pcDNA3.3-TOPO vector); microsome fraction used as enzyme source
T1 sequence (Q16739 1-394): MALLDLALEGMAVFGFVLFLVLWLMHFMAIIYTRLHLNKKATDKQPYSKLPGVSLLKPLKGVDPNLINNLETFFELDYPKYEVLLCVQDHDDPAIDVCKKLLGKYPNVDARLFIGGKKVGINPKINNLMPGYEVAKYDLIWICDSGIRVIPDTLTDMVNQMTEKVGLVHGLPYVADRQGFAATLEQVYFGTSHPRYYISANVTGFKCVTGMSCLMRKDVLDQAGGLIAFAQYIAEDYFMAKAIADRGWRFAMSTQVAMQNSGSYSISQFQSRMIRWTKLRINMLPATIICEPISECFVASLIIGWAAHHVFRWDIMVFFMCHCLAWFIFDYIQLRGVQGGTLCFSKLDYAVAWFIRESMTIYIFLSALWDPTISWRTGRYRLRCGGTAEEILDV
As to the kind of experiment: Glucosylceramide synthase (GCS) enzyme assay, microsome fraction, C8 glucosylceramide quantified by Rapidfire MS/MS. It is filed as biochemical. The following applies: test compound 10 μM; 1.7 μM UDP-glucose, 3 μM C8 ceramide; room temperature 60 min; read-out: GCS enzyme inhibitory rate at 10 μM (%) (% of control). The procedure, abridged: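 Test compound, 10 μM final, was run against human GCS from transfected Expi293F microsome fractions, using substrate solution of 6 μM C8 ceramide (in DOPC liposomes) plus 3.4 μM UDP-glucose, pH 7.5 Tris buffer, 60 min, room temperature. Product C8 glucosylceramide measured by Rapidfire MS/MS against an internal standard, % inhibition referenced to no-enzyme and DMSO wells.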
On to `Cc1cc2c(c(-c3ccc(F)cc3OCC(F)(F)F)n1)CN(c1ccc(C(C)(C)O)cc1)C2=O` [Example 351, 4-[4-fluoro-2-(2,2,2-trifluoroethoxy)phenyl]-2-[4-(2-hydroxypropan-2-yl)phenyl]-6-methyl-2,3-dihydro-1H-pyrrolo[3,4-c]pyridin-1-one], for which the inhibition at 10 µM was determined as 100%.

With `Cc1cc2c(c(-c3ccc(F)cc3OCC(F)(F)F)n1)CN(c1ccc(C3(O)CCOCC3)cc1)C2=O` [Example 352, 4-[4-fluoro-2-(2,2,2-trifluoroethoxy)phenyl]-2-[4-(4-hydroxyoxan-4-yl)phenyl]-6-methyl-2,3-dihydro-1H-pyrrolo[3,4-c] pyridin-1-one], the inhibition at 10 µM turned out to be 100%.

In the case of `Cc1cc2c(c(-c3c(F)cccc3OCC(F)(F)F)n1)CN(c1ccc(C(C)(C)O)cc1)C2=O` [Example 353, 4-[2-fluoro-6-(2,2,2-trifluoroethoxy)phenyl]-2-[4-(2-hydroxypropan-2-yl)phenyl]-6-methyl-2,3-dihydro-1H-pyrrolo[3,4-c]pyridin-1-one], the inhibition at 10 µM was 100%.

Consider `CC(C)(O)c1cc2c(c(-c3ccccc3OCC(F)F)n1)CN(c1ccc(OCC(F)(F)F)cc1)C2=O` [Example 354, 4-[2-(2,2-difluoroethoxy)phenyl]-6-(2-hydroxypropan-2-yl)-2-[4-(2,2,2-trifluoroethoxy)phenyl]-2,3-dihydro-1H-pyrrolo[3,4-c]pyridin-1-one], for which the inhibition at 10 µM came out at 100%.

As for `CC(C)(O)c1cc2c(c(-c3ccccc3OCC(F)F)n1)CN(c1ccc(OC(F)F)cc1)C2=O` [Example 355, 4-[2-(2,2-difluoroethoxy)phenyl]-2-[4-(difluoromethoxy)phenyl]-6-(2-hydroxypropan-2-yl)-2,3-dihydro-1H-pyrrolo[3,4-c]pyridin-1-one], the inhibition at 10 µM was 100%.

For the compound `CC(C)(O)c1cc2c(c(-c3ccccc3OCC(F)F)n1)CN(c1ccc(F)cc1)C2=O` [Example 356, 4-[2-(2,2-difluoroethoxy)phenyl]-2-(4-fluorophenyl)-6-(2-hydroxypropan-2-yl)-2,3-dihydro-1H-pyrrolo [3,4-c]pyridin-1-one], the inhibition at 10 µM came out at 99%.

Consider `CC(C)(O)c1cc2c(c(-c3ccccc3OCC(F)F)n1)CN(c1ccc(C(F)F)cc1)C2=O` [Example 357, 4-[2-(2,2-difluoroethoxy)phenyl]-2-[4-(difluoromethyl)phenyl]-6-(2-hydroxypropan-2-yl)-2,3-dihydro-1H-pyrrolo[3,4-c] pyridin-1-one], for which the inhibition at 10 µM was determined as 100%.

On to `CC(C)(O)c1cc2c(c(-c3ccccc3OCC(F)F)n1)CN(c1ccc(C(C)(C)C#N)cc1)C2=O` [Example 360, 2-(4-{4-[2-(2,2-difluoroethoxy)phenyl]-6-(2-hydroxypropan-2-yl)-1-oxo-1,3-dihydro-2H-pyrrolo [3,4-c]pyridin-2-yl}phenyl)-2-methylpropanenitrile], for which the inhibition at 10 µM worked out at 100%.

With `CC(C)(C#N)COc1ccc(N2Cc3c(cc(C(C)(C)O)nc3-c3ccccc3OCC(F)F)C2=O)cc1` [Example 362, 3-(4-{4-[2-(2,2-difluoroethoxy)phenyl]-6-(2-hydroxypropan-2-yl)-1-oxo-1,3-dihydro-2H-pyrrolo[3,4-c]pyridin-2-yl}phenoxy)-2,2-dimethylpropanenitrile], the inhibition at 10 µM came to 100%.

With `CC(C)(O)c1ccc(N2Cc3c(cc(C(C)(C)O)nc3-c3ccccc3OCC(F)F)C2=O)cn1` [Example 363, 4-[2-(2,2-difluoroethoxy)phenyl]-6-(2-hydroxypropan-2-yl)-2-[6-(2-hydroxypropan-2-yl)pyridin-3-yl]-2,3-dihydro-1H-pyrrolo [3,4-c]pyridin-1-one], the inhibition at 10 µM was determined as 97%.

On to `Cc1cc2c(c(-c3ccccc3OCC(F)(F)F)n1)CN(c1ccc(OCC(C)(C)O)cc1)C2=O` [Example 364, 2-[4-(2-hydroxy-2-methylpropoxy)phenyl]-6-methyl-4-[2-(2,2,2-trifluoroethoxy)phenyl]-2,3-dihydro-1H-pyrrolo [3,4-c]pyridin-1-one], for which the inhibition at 10 µM is 100%.

As for `Cc1cc2c(c(-c3ccccc3OCC(F)F)n1)CN(c1ccc(OCC(C)(C)O)cc1)C2=O` [Example 365, 4-[2-(2,2-difluoroethoxy)phenyl]-2-[4-(2-hydroxy-2-methylpropoxy)phenyl]-6-methyl-2,3-dihydro-1H-pyrrolo[3,4-c]pyridin-1-one], the inhibition at 10 µM is 100%.

Regarding `CC(C)(O)COc1ccc(N2Cc3c(ccnc3-c3ccccc3OCC(F)F)C2=O)cc1` [Example 366, 4-[2-(2,2-difluoroethoxy)phenyl]-2-[4-(2-hydroxy-2-methylpropoxy)phenyl]-2,3-dihydro-1H-pyrrolo [3,4-c]pyridin-1-one], the inhibition at 10 µM was found to be 99%.

Turning to `Cc1cc2c(c(-c3ccccc3OCC(F)(F)F)n1)CN(c1ccc(OCC(C)(C)O)nc1)C2=O` [Example 367, 2-[6-(2-hydroxy-2-methylpropoxy)pyridin-3-yl]-6-methyl-4-[2-(2,2,2-trifluoroethoxy)phenyl]-2,3-dihydro-1H-pyrrolo[3,4-c] pyridin-1-one], the inhibition at 10 µM was 99%.

`CC(C)(O)c1ccc(N2Cc3c(cn(C(F)F)c(=O)c3-c3ccccc3OCC(F)(F)F)C2=O)cc1` [Example 368, 5-(difluoromethyl)-2-[4-(2-hydroxypropan-2-yl)phenyl]-7-[2-(2,2,2-trifluoroethoxy)phenyl]-1H-pyrrolo[3,4-c]pyridine-3,6(2H,5H)-dione]: the inhibition at 10 µM is 100%.

For `CC(C)(O)COc1ccc(N2Cc3c(cn(C(F)F)c(=O)c3-c3ccccc3OCC(F)(F)F)C2=O)cc1` [Example 369, 5-(difluoromethyl)-2-[4-(2-hydroxy-2-methylpropoxy)phenyl]-7-[2-(2,2,2-trifluoroethoxy)phenyl]-1H-pyrrolo[3,4-c]pyridine-3,6(2H,5H)-dione], the inhibition at 10 µM came to 100%.

With `CC(C)(O)c1ccc(N2Cc3c(cn(C4CC4)c(=O)c3-c3ccccc3OCC(F)(F)F)C2=O)cc1` [Example 371, 5-cyclopropyl-2-[4-(2-hydroxypropan-2-yl)phenyl]-7-[2-(2,2,2-trifluoroethoxy)phenyl]-1H-pyrrolo[3,4-c]pyridine-3,6(2H,5H)-dione], the inhibition at 10 µM was determined as 100%.

As for `CC(C)(O)COc1ccc(N2Cc3c(cn(C4CC4)c(=O)c3-c3ccccc3OCC(F)(F)F)C2=O)cc1` [Example 372, 5-cyclopropyl-2-[4-(2-hydroxy-2-methylpropoxy)phenyl]-7-[2-(2,2,2-trifluoroethoxy)phenyl]-1H-pyrrolo[3,4-c]pyridine-3,6(2H,5H)-dione], the inhibition at 10 µM amounted to 100%.

In the case of `Cc1cc2c(c(-c3ccccc3OCC(F)(F)F)n1)CN(c1ccc(OCC3(O)CC3)cc1)C2=O` [Example 375, 2-{4-[(1-hydroxycyclopropyl)methoxy]phenyl}-6-methyl-4-[2-(2,2,2-trifluoroethoxy)phenyl]-2,3-dihydro-1H-pyrrolo[3,4-c]pyridin-1-one], the inhibition at 10 µM was determined as 100%.

As to `CC(C)n1cc2c(c(-c3ccccc3OCC(F)(F)F)c1=O)CN(c1ccc(C(C)(C)O)cc1)C2=O` [Example 376, 2-[4-(2-hydroxypropan-2-yl)phenyl]-5-(propan-2-yl)-7-[2-(2,2,2-trifluoroethoxy)phenyl]-1H-pyrrolo[3,4-c]pyridine-3,6(2H,5H)-dione], the inhibition at 10 µM is 100%.

`CC(C)n1cc2c(c(-c3ccccc3OCC(F)(F)F)c1=O)CN(c1ccc(OCC(C)(C)O)cc1)C2=O` [Example 377, 2-[4-(2-hydroxy-2-methylpropoxy)phenyl]-5-(propan-2-yl)-7-[2-(2,2,2-trifluoroethoxy)phenyl]-1H-pyrrolo[3,4-c]pyridine-3,6(2H,5H)-dione]: the inhibition at 10 µM came out at 100%.

For `CC(C)(O)c1ccc(N2Cc3c(cc(C4CCOCC4)nc3-c3ccccc3OCC(F)(F)F)C2=O)cc1` [Example 379, 2-[4-(2-hydroxypropan-2-yl)phenyl]-6-(oxan-4-yl)-4-[2-(2,2,2-trifluoroethoxy)phenyl]-2,3-dihydro-1H-pyrrolo[3,4-c]pyridin-1-one], the inhibition at 10 µM was 101%.

In the case of `O=C1c2cc(C3CCCCC3)nc(-c3ccc(F)cc3OCC(F)(F)F)c2CN1c1ccc(F)cc1` [Example 381, 6-cyclohexyl-2-(4-fluorophenyl)-4-[4-fluoro-2-(2,2,2-trifluoroethoxy)phenyl]-2,3-dihydro-1H-pyrrolo [3,4-c]pyridin-1-one], the inhibition at 10 µM worked out at 95%.

As to `O=C1c2cc(C3CCOCC3)nc(-c3ccc(F)cc3OCC(F)(F)F)c2CN1c1ccc(F)cc1` [Example 382, 2-(4-fluorophenyl)-4-[4-fluoro-2-(2,2,2-trifluoroethoxy)phenyl]-6-(oxan-4-yl)-2,3-dihydro-1H-pyrrolo [3,4-c]pyridin-1-one], the inhibition at 10 µM was found to be 97%.

Regarding `CC(C)(O)c1ccc(N2Cc3c(cc(C(C)(C)F)nc3-c3ccccc3OCC(F)(F)F)C2=O)cc1` [Example 384, 6-(2-fluoropropan-2-yl)-2-[4-(2-hydroxypropan-2-yl)phenyl]-4-[2-(2,2,2-trifluoroethoxy)phenyl]-2,3-dihydro-1H-pyrrolo[3,4-c]pyridin-1-one], the inhibition at 10 µM is 100%.
